Laboratory results: ChEMBL document CHEMBL1201862, “PubChem BioAssay data set” (2004)
Calls of active or inactive are those of the source.

How the values were obtained:
[1] = molecular target: Cell division cycle 7-related protein kinase (Homo sapiens, UniProt O00311); format: functional;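 note: value obtained from a kinome-wide kinase panel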
[2] = molecular target: Cyclin-dependent kinase 19 (Homo sapiens, UniProt Q9BWU1); assay: Navigating the Kinome. Panel member name: CDC2L6; format: functional
[3] = molecular target: Cytochrome P450 2C9 (Homo sapiens, UniProt P11712)
[4] = molecular target: Cytochrome P450 3A4 (Homo sapiens, UniProt P08684);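 note: CYP3A4 tested as one member of a cytochrome P450 panel screen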
[5] = system: Escherichia coli; assay: microbe, parasite or virus in culture
[6] = molecular target: Cytochrome P450 2C19 (Homo sapiens, UniProt P33261); assay: Cytochrome panel assay with activity outcomes. Panel member name: p450-cyp2c19 Compounds with AC50 equal or less than 10 uM are considered active; format: functional; settings: read-out: AC50
[7] = system: Escherichia coli; assay: microbe, parasite or virus in culture; remark: listed apart in the source
[8] = molecular target: Ras and Rab interactor 1/Tyrosine-protein kinase ABL1 (Homo sapiens, UniProt P00519+Q13671); format: functional;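 note: biochemical TR-FRET dose-response test measuring inhibition of binding between Rin1 and Abl proteins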
[9] = molecular target: Dual specificity protein kinase CLK4 (Homo sapiens, UniProt Q9HAZ1); format: functional
[10] = molecular target: Beta-2 adrenergic receptor (Homo sapiens, UniProt P07550); assay: beta2AR agonists driving receptor internalization, dose response, cell-based, FAP fluorogen, flow cytometry, cherry pick 1 (AID 588763); format: functional
[11] = molecular target: Cyclin-dependent kinase 8 (Homo sapiens, UniProt P49336); assay: Navigating the Kinome. Panel member name: CDK8; format: functional
[12] = molecular target: Activin receptor type-1 (Homo sapiens, UniProt Q04771); assay: Navigating the Kinome. Panel member name: ACVR1; format: functional
Activin receptor type-1, sequence (Q04771 whole entry): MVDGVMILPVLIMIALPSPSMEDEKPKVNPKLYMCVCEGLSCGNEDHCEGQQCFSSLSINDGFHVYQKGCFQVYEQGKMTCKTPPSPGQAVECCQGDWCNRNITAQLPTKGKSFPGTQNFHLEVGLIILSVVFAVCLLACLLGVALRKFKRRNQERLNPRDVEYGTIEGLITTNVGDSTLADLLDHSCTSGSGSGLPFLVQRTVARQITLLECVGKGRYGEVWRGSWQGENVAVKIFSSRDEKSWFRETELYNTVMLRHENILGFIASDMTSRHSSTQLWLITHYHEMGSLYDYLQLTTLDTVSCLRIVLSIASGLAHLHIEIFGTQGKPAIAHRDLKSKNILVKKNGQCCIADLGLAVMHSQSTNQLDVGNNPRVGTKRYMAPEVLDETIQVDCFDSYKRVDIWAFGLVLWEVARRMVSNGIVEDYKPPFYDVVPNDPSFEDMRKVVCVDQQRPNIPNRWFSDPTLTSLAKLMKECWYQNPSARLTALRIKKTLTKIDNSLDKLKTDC

Cyclin-dependent kinase 19, sequence (Q9BWU1 whole entry): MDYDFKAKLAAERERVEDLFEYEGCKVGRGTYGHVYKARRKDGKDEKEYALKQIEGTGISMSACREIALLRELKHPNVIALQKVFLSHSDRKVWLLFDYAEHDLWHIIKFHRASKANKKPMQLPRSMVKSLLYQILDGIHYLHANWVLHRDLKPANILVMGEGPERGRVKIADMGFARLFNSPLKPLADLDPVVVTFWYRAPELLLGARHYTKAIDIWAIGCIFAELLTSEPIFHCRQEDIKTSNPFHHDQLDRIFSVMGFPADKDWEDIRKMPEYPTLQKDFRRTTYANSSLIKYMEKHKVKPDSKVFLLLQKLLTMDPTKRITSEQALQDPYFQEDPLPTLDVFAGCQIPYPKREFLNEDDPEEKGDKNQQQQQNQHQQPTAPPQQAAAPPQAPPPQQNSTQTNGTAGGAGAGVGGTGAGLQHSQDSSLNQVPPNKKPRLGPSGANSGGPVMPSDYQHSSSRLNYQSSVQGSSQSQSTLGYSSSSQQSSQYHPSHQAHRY
Cytochrome P450 2C9, sequence (P11712 whole entry): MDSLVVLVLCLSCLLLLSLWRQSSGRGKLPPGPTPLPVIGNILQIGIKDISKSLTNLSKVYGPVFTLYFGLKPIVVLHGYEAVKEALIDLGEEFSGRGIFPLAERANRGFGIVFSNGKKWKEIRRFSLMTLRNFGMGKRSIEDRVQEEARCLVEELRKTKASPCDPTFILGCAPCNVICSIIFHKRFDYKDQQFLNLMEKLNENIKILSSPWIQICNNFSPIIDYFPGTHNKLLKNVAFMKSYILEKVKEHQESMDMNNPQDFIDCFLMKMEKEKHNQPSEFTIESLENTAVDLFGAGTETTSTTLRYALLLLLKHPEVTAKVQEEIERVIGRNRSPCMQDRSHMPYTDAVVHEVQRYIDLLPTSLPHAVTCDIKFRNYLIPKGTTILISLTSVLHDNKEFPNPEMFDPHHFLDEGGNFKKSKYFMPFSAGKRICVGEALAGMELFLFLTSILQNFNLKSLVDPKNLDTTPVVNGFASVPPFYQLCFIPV
Cell division cycle 7-related protein kinase, sequence (O00311 whole entry): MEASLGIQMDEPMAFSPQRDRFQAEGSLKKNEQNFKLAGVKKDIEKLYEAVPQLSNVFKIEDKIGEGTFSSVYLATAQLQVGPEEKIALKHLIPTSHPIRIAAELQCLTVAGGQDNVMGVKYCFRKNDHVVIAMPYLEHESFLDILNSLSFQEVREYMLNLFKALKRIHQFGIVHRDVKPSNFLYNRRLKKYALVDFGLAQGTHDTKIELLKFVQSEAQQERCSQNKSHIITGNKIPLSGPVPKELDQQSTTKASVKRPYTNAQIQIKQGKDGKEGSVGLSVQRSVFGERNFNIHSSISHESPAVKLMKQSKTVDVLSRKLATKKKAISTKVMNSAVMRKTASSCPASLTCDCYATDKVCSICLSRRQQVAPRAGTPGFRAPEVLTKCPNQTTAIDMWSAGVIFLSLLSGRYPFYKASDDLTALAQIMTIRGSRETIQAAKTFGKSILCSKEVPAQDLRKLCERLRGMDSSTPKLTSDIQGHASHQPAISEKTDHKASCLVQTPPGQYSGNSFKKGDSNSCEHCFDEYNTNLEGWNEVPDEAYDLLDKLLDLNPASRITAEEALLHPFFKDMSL
Cytochrome P450 3A4, sequence (P08684 whole entry): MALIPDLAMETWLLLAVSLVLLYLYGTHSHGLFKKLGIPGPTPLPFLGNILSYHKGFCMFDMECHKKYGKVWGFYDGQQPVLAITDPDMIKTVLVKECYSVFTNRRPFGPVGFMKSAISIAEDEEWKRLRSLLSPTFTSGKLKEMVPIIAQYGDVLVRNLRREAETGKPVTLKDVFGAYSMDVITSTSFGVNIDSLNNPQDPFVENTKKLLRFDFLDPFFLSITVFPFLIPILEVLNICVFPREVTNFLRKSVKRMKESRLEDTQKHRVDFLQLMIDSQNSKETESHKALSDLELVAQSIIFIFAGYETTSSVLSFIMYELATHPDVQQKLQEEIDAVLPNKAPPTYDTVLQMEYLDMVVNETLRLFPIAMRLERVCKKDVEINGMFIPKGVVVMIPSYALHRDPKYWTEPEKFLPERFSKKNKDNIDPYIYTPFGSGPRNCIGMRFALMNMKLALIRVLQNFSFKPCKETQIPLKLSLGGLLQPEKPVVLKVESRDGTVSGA
Ras and Rab interactor 1/Tyrosine-protein kinase ABL1, sequence (P00519 whole entry): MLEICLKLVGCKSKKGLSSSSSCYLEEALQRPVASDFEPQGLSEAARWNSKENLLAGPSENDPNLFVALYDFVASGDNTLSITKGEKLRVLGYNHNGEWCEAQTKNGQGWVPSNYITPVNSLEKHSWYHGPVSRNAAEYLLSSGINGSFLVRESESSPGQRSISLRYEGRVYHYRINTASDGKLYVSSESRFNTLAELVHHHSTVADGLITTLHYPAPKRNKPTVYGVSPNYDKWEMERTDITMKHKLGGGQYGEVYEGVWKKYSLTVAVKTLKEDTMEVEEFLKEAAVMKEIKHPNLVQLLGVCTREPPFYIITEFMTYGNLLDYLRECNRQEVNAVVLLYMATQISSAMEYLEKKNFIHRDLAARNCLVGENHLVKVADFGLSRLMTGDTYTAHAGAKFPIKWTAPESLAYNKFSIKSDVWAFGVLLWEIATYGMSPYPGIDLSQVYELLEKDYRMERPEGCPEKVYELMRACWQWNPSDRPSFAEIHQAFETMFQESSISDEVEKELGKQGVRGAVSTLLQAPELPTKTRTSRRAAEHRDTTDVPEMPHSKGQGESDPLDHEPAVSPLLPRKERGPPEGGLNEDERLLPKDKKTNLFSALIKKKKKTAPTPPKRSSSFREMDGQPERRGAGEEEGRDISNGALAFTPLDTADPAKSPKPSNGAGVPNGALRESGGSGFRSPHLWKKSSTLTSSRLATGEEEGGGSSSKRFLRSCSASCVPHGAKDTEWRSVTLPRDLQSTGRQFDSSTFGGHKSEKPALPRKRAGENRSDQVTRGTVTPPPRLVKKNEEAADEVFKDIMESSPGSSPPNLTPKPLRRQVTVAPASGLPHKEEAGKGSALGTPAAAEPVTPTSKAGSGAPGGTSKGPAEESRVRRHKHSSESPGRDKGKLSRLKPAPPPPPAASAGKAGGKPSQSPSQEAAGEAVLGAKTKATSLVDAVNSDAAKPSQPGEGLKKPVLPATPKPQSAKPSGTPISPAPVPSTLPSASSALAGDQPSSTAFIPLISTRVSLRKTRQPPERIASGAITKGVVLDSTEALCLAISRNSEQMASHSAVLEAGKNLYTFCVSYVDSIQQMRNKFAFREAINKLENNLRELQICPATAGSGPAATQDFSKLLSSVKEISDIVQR
Ras and Rab interactor 1/Tyrosine-protein kinase ABL1, sequence (Q13671 whole entry): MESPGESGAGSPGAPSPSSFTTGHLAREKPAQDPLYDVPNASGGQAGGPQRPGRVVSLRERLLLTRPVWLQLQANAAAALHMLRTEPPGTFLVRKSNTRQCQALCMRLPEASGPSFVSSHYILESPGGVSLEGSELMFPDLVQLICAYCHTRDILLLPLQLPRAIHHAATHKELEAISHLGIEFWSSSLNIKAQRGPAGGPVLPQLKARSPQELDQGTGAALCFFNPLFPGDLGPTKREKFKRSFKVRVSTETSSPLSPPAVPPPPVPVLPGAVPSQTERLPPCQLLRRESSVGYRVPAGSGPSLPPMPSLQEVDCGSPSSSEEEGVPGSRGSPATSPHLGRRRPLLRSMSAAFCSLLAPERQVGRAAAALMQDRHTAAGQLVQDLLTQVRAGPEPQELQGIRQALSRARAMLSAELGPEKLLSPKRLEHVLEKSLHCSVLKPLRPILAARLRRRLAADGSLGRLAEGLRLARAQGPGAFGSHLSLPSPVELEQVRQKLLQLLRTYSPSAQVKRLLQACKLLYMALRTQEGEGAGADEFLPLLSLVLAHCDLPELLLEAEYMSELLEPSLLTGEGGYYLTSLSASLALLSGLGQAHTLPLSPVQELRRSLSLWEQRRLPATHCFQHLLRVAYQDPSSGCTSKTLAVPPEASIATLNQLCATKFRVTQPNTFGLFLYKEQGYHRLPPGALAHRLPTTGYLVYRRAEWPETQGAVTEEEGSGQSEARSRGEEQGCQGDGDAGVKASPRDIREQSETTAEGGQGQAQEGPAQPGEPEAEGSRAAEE
Dual specificity protein kinase CLK4, sequence (Q9HAZ1 whole entry): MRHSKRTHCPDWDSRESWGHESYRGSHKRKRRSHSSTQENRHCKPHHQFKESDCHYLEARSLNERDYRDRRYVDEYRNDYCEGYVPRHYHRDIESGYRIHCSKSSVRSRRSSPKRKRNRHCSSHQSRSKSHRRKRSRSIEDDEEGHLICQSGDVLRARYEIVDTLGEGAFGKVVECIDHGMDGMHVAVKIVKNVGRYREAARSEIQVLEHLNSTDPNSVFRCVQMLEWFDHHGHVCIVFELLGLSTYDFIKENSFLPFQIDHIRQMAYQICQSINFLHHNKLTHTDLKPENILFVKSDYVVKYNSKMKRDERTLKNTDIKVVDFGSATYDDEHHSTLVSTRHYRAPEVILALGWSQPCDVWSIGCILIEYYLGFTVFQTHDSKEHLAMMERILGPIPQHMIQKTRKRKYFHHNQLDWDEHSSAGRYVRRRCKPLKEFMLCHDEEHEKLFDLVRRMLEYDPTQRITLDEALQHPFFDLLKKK

O=C(O)c1ccccc1Nc1ccnc(N2CCCCC2)n1
Ki [1]: 3.98 µM (active) | Ki [2]: > 100 µM (inactive)

CCN(CC)S(=O)(=O)N1CCC(C(=O)NC2CCCC2)CC1
AC50 [3]: 3.16 µM (inconclusive) | AC50 [4]: 15.8 µM (inconclusive) | AC50 [5]: 26.2 µM (active) | AC50 [6]: 39.8 µM (inconclusive)

COC(=O)c1cc(C(=O)Nc2cc(C)ccn2)cc([N+](=O)[O-])c1
AC50 [7]: 63.9 µM (active) | AC50 [5]: 132 µM (active)

O=C(Nc1ccc(O)cc1C(=O)O)c1cccc(Br)c1
IC50 [8]: 19.1 µM (inactive)

O=c1cc(Cc2nc3ccccc3[nH]2)[nH]n1-c1ccccc1
Ki [9]: 1.26 µM (active) | Ki [2]: > 100 µM (inactive)

COc1ccc(-c2cc(C(F)(F)F)nc(S(=O)(=O)CCC(=O)N3CCOCC3)n2)cc1
EC50 [10]: 25.3 µM (inactive)

Cc1nn(C)c(=O)c(N)c1-c1ccccc1
Ki [11]: 31.6 µM (active) | Ki [12]: 50.1 µM (active)
